Test results reported in PubChem BioAssay AID280 (DTP/NCI, 2004).
Several values for one entry are separate records, joined by “and”; a condition that tells them apart may be missing. Identical values can stand only once. Toxic doses and inconclusive results are not listed. Rule for the calls: active = survival T/C of 150% or more; inactive = T/C below 125% in these data.

Tested on: nude mice, LOX melanoma ip, survival T/C
Assay: NCI In Vivo Anticancer Drug Screen. Data for tumor model Human Amelanotic Melanoma (LOX) (intraperitoneal) in NU/NU BALB/C (nude) mice
Settings: endpoint: median survival time, higher = longer survival
Procedure: The antitumor activity of compounds was measured in mice bearing transplantable tumors. Survival or tumor size were measured and the results are expressed as the measurement made in the treated group (T) divided by the measurement made in the vehicle treated control group (C). The tumor model used in this assay is Human Amelanotic Melanoma (LOX) (intraperitoneal) in NU/NU BALB/C (nude) mice

[1] = dose: 50.0 mg/kg/injection, schedule: Q04DX003 (ip), vehicle: suspension in saline
[2] = dose: 100.0 mg/kg/injection, schedule: Q04DX003 (ip), vehicle: suspension in saline
[3] = dose: 75.0 mg/kg/injection, schedule: Q04DX003 (ip), vehicle: Klucel (hydroxypropylcellulose) (HPC)
[4] = dose: 25.0 mg/kg/injection, schedule: Q04DX003 (ip), vehicle: saline with Tween-80
[5] = dose: 50.0 mg/kg/injection, schedule: Q04DX003 (ip), vehicle: saline with Tween-80
[6] = dose: 12.5 mg/kg/injection, schedule: Q04DX003 (ip), vehicle: saline with Tween-80

Measured: T/C

CN(Cc1cnc2nc(N)nc(N)c2n1)c1ccc(C(=O)N[C@@H](CCC(=O)O)C(=O)O)cc1
inactive: dose: 0.38 mg/kg/injection, schedule: Q01DX015 (ip), vehicle: sodium bicarbonate 90 % of control | dose: 0.75 mg/kg/injection, schedule: Q01DX005 (ip), vehicle: sodium bicarbonate 90 % of control | dose: 1.5 mg/kg/injection, schedule: Q01DX005 (ip), vehicle: sodium bicarbonate 113 % of control | dose: 1.5 mg/kg/injection, schedule: Q01DX015 (ip), vehicle: sodium bicarbonate 95 % of control | dose: 3.0 mg/kg/injection, schedule: Q01DX005 (ip), vehicle: sodium bicarbonate 112 % of control | dose: 3.0 mg/kg/injection, schedule: Q01DX015 (ip), vehicle: sodium bicarbonate 102 % of control | dose: 6.0 mg/kg/injection, schedule: Q01DX005 (ip), vehicle: sodium bicarbonate 112 % of control | dose: 10.0 mg/kg/injection, schedule: Q04DX003 (ip), vehicle: sodium bicarbonate 107 % of control | dose: 12.0 mg/kg/injection, schedule: Q01DX005 (ip), vehicle: sodium bicarbonate 107 % of control | dose: 12.0 mg/kg/injection, schedule: Q04DX003 (ip), vehicle: sodium bicarbonate 105 % of control and 112 % of control | dose: 18.0 mg/kg/injection, schedule: Q04DX003 (ip), vehicle: sodium bicarbonate 103 % of control and 101 % of control | dose: 20.0 mg/kg/injection, schedule: Q04DX003 (ip), vehicle: sodium bicarbonate 102 % of control | dose: 25.0 mg/kg/injection, schedule: Q01DX001 (ip), vehicle: sodium bicarbonate 107 % of control | dose: 27.0 mg/kg/injection, schedule: Q04DX003 (ip), vehicle: sodium bicarbonate 105 % of control and 112 % of control | dose: 40.0 mg/kg/injection, schedule: Q04DX003 (ip), vehicle: sodium bicarbonate 113 % of control | dose: 50.0 mg/kg/injection, schedule: Q01DX001 (ip), vehicle: sodium bicarbonate 106 % of control | dose: 100.0 mg/kg/injection, schedule: Q01DX001 (ip), vehicle: sodium bicarbonate 103 % of control | dose: 200.0 mg/kg/injection, schedule: Q01DX001 (ip), vehicle: sodium bicarbonate 121 % of control

CC(=O)/C(=C\c1ccc(Cl)c(Cl)c1)C(=O)CCN(C)C
inactive: dose: 6.25 mg/kg/injection, schedule: Q04DX003 (ip), vehicle: suspension in saline 96 % of control | dose: 12.5 mg/kg/injection, schedule: Q04DX003 (ip), vehicle: suspension in saline 102 % of control | dose: 25.0 mg/kg/injection, schedule: Q04DX003 (ip), vehicle: suspension in saline 96 % of control | [1] 86 % of control | [2] 122 % of control

C/C=C/C=C/c1cc2cc3c(c(O)c2c(=O)[nH]1)C1(CC3)C(O)=c2c(=O)c3c(=O)cc(OC)c(=O)c=3c(=O)c2=C1O (stereo unspecified)
active: dose: 1.0 mg/kg/injection, schedule: Q04DX003 (ip), vehicle: water 155 % of control | dose: 1.8 mg/kg/injection, schedule: Q04DX003 (ip), vehicle: water 155 % of control | dose: 3.0 mg/kg/injection, schedule: Q04DX003 (ip), vehicle: water 169 % of control and 177 % of control | dose: 5.0 mg/kg/injection, schedule: Q04DX003 (ip), vehicle: water 177 % of control | dose: 8.3 mg/kg/injection, schedule: Q04DX003 (ip), vehicle: water 189 % of control

Cc1cc(N/N=C/c2ccccn2)nc2ccccc12
inactive: [3] 107 % of control | dose: 150.0 mg/kg/injection, schedule: Q04DX003 (ip), vehicle: Klucel (hydroxypropylcellulose) (HPC) 107 % of control

O=C(CN1CCOCC1)Nc1nc(-c2ccc(Cl)cc2)cs1
inactive: dose: 75.0 mg/kg/injection, schedule: Q04DX003 (ip), vehicle: DMSO 119 % of control | dose: 150.0 mg/kg/injection, schedule: Q04DX003 (ip), vehicle: DMSO 112 % of control | dose: 300.0 mg/kg/injection, schedule: Q04DX003 (ip), vehicle: DMSO 88 % of control | dose: 600.0 mg/kg/injection, schedule: Q04DX003 (ip), vehicle: DMSO 95 % of control | dose: 1200.0 mg/kg/injection, schedule: Q04DX003 (ip), vehicle: DMSO 92 % of control

CCCCCC1c2cc(O)ccc2OC1N1CCOCC1 (stereo unspecified)
inactive: [4] 111 % of control | [5] 100 % of control | dose: 200.0 mg/kg/injection, schedule: Q04DX003 (ip), vehicle: saline with Tween-80 86 % of control

Nc1nc2c(C(=O)N3CCCC3)nnn2c2ccccc12
inactive: [6] 96 % of control | [4] 102 % of control | [5] 92 % of control

CO[C@@]12[C@@H]3N[C@@H]3CN1C1=C(C(=O)C(NCCc3ccccn3)=C(C)C1=O)[C@@H]2COC(N)=O
active: dose: 1.5 mg/kg/injection, schedule: Q04DX003 (ip), vehicle: saline with Tween-80 187 % of control | dose: 3.12 mg/kg/injection, schedule: Q04DX003 (ip), vehicle: saline with Tween-80 192 % of control | dose: 3.13 mg/kg/injection, schedule: Q04DX003 (ip), vehicle: saline with Tween-80 159 % of control | dose: 6.25 mg/kg/injection, schedule: Q04DX003 (ip), vehicle: saline with Tween-80 179 % of control and 198 % of control | [6] 317 % of control and 340 % of control | [4] 317 % of control and 340 % of control

CCOC(=O)C1=C(Nc2ccc(OC)cc2)C(N)=NC1=N
inactive: [1] 107 % of control | [2] 107 % of control

CCOC(=O)Nc1cc(NC(C)/C(=N/O)c2ccccc2)c([N+](=O)[O-])c(N)n1 (stereo unspecified)
inactive: dose: 50.0 mg/kg/injection, schedule: Q04DX003 (ip), vehicle: Klucel (hydroxypropylcellulose) (HPC) 97 % of control | dose: 51.84 mg/kg/injection, schedule: Q04DX003 (ip), vehicle: Klucel (hydroxypropylcellulose) (HPC) 109 % of control | dose: 86.4 mg/kg/injection, schedule: Q04DX003 (ip), vehicle: Klucel (hydroxypropylcellulose) (HPC) 104 % of control | dose: 144.0 mg/kg/injection, schedule: Q04DX003 (ip), vehicle: Klucel (hydroxypropylcellulose) (HPC) 89 % of control | dose: 240.0 mg/kg/injection, schedule: Q04DX003 (ip), vehicle: Klucel (hydroxypropylcellulose) (HPC) 101 % of control

CCCCCCCC(=O)O[C@H]1[C@H]2[C@@H](CC1(C)C)C(=O)[C@]13O[C@H]1C(=O)[C@]1(CO1)[C@]23C
inactive: dose: 2.5 mg/kg/injection, schedule: Q04DX003 (ip), vehicle: saline with Tween-80 115 % of control | dose: 5.0 mg/kg/injection, schedule: Q04DX003 (ip), vehicle: saline with Tween-80 92 % of control | dose: 10.0 mg/kg/injection, schedule: Q04DX003 (ip), vehicle: saline with Tween-80 90 % of control | dose: 20.0 mg/kg/injection, schedule: Q04DX003 (ip), vehicle: saline with Tween-80 103 % of control | dose: 40.0 mg/kg/injection, schedule: Q04DX003 (ip), vehicle: saline with Tween-80 92 % of control

NCCCSc1ccccc1
inactive: dose: 9.38 mg/kg/injection, schedule: Q01DX009 (ip), vehicle: saline 94 % of control | dose: 18.75 mg/kg/injection, schedule: Q01DX009 (ip), vehicle: saline 99 % of control | dose: 37.5 mg/kg/injection, schedule: Q01DX009 (ip), vehicle: saline 99 % of control | dose: 75.0 mg/kg/injection, schedule: Q01DX009 (ip), vehicle: saline 94 % of control | dose: 150.0 mg/kg/injection, schedule: Q01DX009 (ip), vehicle: saline 89 % of control

COc1cc(C2=NCCc3cc4c(cc32)OCO4)cc(OC)c1OC
inactive: dose: 18.75 mg/kg/injection, schedule: Q04DX003 (ip), vehicle: saline + alcohol 114 % of control | dose: 37.5 mg/kg/injection, schedule: Q04DX003 (ip), vehicle: saline + alcohol 115 % of control | dose: 75.0 mg/kg/injection, schedule: Q04DX003 (ip), vehicle: saline + alcohol 110 % of control | dose: 150.0 mg/kg/injection, schedule: Q04DX003 (ip), vehicle: saline + alcohol 115 % of control

O=C1CN(CCN2CC(=O)N(CN3CCOCC3)C(=O)C2)CC(=O)N1CN1CCOCC1
inactive: dose: 18.75 mg/kg/injection, schedule: Q04DX003 (ip), vehicle: saline with Tween-80 98 % of control | dose: 37.5 mg/kg/injection, schedule: Q04DX003 (ip), vehicle: saline with Tween-80 120 % of control | dose: 37.5 mg/kg/injection, schedule: Q04DX003 (ip), vehicle: water 88 % of control | dose: 75.0 mg/kg/injection, schedule: Q04DX003 (ip), vehicle: saline with Tween-80 108 % of control | dose: 75.0 mg/kg/injection, schedule: Q04DX003 (ip), vehicle: water 102 % of control | dose: 150.0 mg/kg/injection, schedule: Q04DX003 (ip), vehicle: water 101 % of control

Cc1cc(Nc2ccc3c(c2)OCO3)c2cc3c(cc2n1)OCO3
inactive: [3] 106 % of control
active: dose: 600.0 mg/kg/injection, schedule: Q04DX003 (ip), vehicle: Klucel (hydroxypropylcellulose) (HPC) 152 % of control and 158 % of control
